# Test results published in patent US9604933B2, “Pyrazolochalcones as potential anticancer agents” (COUNCIL OF SCIENTIFIC AND INDUSTRIAL RESEARCH, priority 2013, dated 2017).
# Where two headings read alike, the source gives them in different places.
# Legend:
# IGROV1 = experiment: NCI SRB cytotoxicity, ovarian IGROV1; format: cell-based; settings: Homo sapiens, IGROV-1, 48 h exposure
# Procedure: (§1) The pyrazolochalcones (7e, 8e, 10e, 11e, 12e, 13e and 8f) have been tested against fifty nine human tumor cell lines derived from nine cancer types (leukemia, non-small cell lung cancer, colon cancer, CNS cancer, melanoma, ovarian cancer, renal cancer, prostate cancer and breast cancer) as per the NCI protocol. For each compound, dose response curves for individual cell lines have been measured at a minimum of five concentrations at 10 fold dilutions. A protocol of 48 h continuous drug exposure has been used, and a sulforhodamine B (SRB) protein assay has been used to estimate cell viability or growth. The concentration for 50% cell growth inhibition (GI50), 50% cell death (LC50, 50% growth) and total cell growth inhibition (TGI, 0% growth) values were tabulated (Table-1). DMSO was used as control to calculate the values of GI50, LC50 and TGI. The compounds 7e, 8e, 10e, 11e, 12e, 13e and 8f has been evaluated for their in vitro cytotoxicity in […] cell lines from nine human cancer types of leukemia (K-562, SR), non-small cell lung (Hop-62, NCI-H226, NCI-H522), colon (HCT-116, HCT-15, HCC-2998), CNS (SF-539), melanoma (SK-MEL-5, UACC-62, M14), ovarian (IGROV1), renal (A498), prostate (PC3) and breast (BT-549, MDA-MB-435, HS578T) origin. The results are expressed as percent of cell growth determined relative to that of untreated control cells (Table 2).
# MDA-MB-231/ATCC = experiment: NCI SRB cytotoxicity, breast MDA-MB-231/ATCC; format: cell-based; settings: Homo sapiens, 48 h exposure
# Procedure: as §1
# KM12 = experiment: NCI SRB cytotoxicity, colon KM12; format: cell-based; settings: Homo sapiens, 48 h exposure
# Procedure: as §1
# OVCAR-5 = experiment: NCI SRB cytotoxicity, ovarian OVCAR-5; format: cell-based; settings: Homo sapiens, 48 h exposure
# Procedure: as §1
# HCT-116 = experiment: NCI SRB cytotoxicity, colon HCT-116; format: cell-based; settings: Homo sapiens, 48 h exposure
# Procedure: as §1
# MALME-3M = experiment: NCI SRB cytotoxicity, melanoma MALME-3M; format: cell-based; settings: Homo sapiens, 48 h exposure
# Procedure: as §1
# SN12C = experiment: NCI SRB cytotoxicity, renal SN12C; format: cell-based; settings: Homo sapiens, 48 h exposure
# Procedure: as §1
# HT29 = experiment: NCI SRB cytotoxicity, colon HT29; format: cell-based; settings: Homo sapiens, HT-29, 48 h exposure
# Procedure: as §1
# SW-620 = experiment: NCI SRB cytotoxicity, colon SW-620; format: cell-based; settings: Homo sapiens, 48 h exposure
# Procedure: as §1
# M14 = experiment: NCI SRB cytotoxicity, melanoma M14; format: cell-based; settings: Homo sapiens, 48 h exposure
# Procedure: as §1
# HOP-62 = experiment: NCI SRB cytotoxicity, non-small cell lung HOP-62; format: cell-based; settings: Homo sapiens, 48 h exposure
# Procedure: as §1
# 786-0 = experiment: NCI SRB cytotoxicity, renal 786-0; format: cell-based; settings: Homo sapiens, 48 h exposure
# Procedure: as §1
# OVCAR-3 = experiment: NCI SRB cytotoxicity, ovarian OVCAR-3; format: cell-based; settings: Homo sapiens, 48 h exposure
# Procedure: as §1
# HS 578T = experiment: NCI SRB cytotoxicity, breast HS 578T; format: cell-based; settings: Homo sapiens, 48 h exposure
# Procedure: as §1
# K-562 = experiment: NCI SRB cytotoxicity, leukemia K-562; format: cell-based; settings: Homo sapiens, K562, 48 h exposure
# Procedure: as §1
# NCI-H522 = experiment: NCI SRB cytotoxicity, non-small cell lung NCI-H522; format: cell-based; settings: Homo sapiens, 48 h exposure
# Procedure: as §1
# Renal = experiment: NCI SRB cytotoxicity, renal panel average; format: cell-based, human; settings: average of cell lines; for CC50: read-out: Log10 LC50 (concentration in mol/L causing 50% cell death) (converted)
# Procedure: as §1
# (§2) Each cancer type represents the average of six to eight different cancer cell lines.
# NCI-H226 = experiment: NCI SRB cytotoxicity, non-small cell lung NCI-H226; format: cell-based; settings: Homo sapiens, 48 h exposure
# Procedure: as §1
# Prostate = experiment: NCI SRB cytotoxicity, prostate panel average; format: cell-based, human; settings: average of cell lines
# Procedure: as §1, §2
# MDA-MB-435 [1] = experiment: NCI SRB cytotoxicity, breast panel MDA-MB-435; format: cell-based; settings: Homo sapiens, 48 h exposure
# Procedure: as §1
# RPMI-8226 = experiment: NCI SRB cytotoxicity, leukemia RPMI-8226; format: cell-based; settings: Homo sapiens, 48 h exposure
# Procedure: as §1
# CAKI-1 = experiment: NCI SRB cytotoxicity, renal CAKI-1; format: cell-based; settings: Homo sapiens, 48 h exposure
# Procedure: as §1
# COLO-205 = experiment: NCI SRB cytotoxicity, colon COLO-205; format: cell-based; settings: Homo sapiens, 48 h exposure
# Procedure: as §1
# NCI-H23 = experiment: NCI SRB cytotoxicity, non-small cell lung NCI-H23; format: cell-based; settings: Homo sapiens, 48 h exposure
# Procedure: as §1
# SK-MEL-5 = experiment: NCI SRB cytotoxicity, melanoma SK-MEL-5; format: cell-based; settings: Homo sapiens, 48 h exposure
# Procedure: as §1
# OVCAR-8 = experiment: NCI SRB cytotoxicity, ovarian OVCAR-8; format: cell-based; settings: Homo sapiens, 48 h exposure
# Procedure: as §1
# BT-549 = experiment: NCI SRB cytotoxicity, breast BT-549; format: cell-based; settings: Homo sapiens, 48 h exposure
# Procedure: as §1
# HCT-15 = experiment: NCI SRB cytotoxicity, colon HCT-15; format: cell-based; settings: Homo sapiens, 48 h exposure
# Procedure: as §1
# Breast = experiment: NCI SRB cytotoxicity, breast panel average; format: cell-based, human; settings: average of cell lines; for CC50: read-out: Log10 LC50 (concentration in mol/L causing 50% cell death) (converted)
# Procedure: as §1, §2
# HL-60(TB) = experiment: NCI SRB cytotoxicity, leukemia HL-60(TB); format: cell-based; settings: Homo sapiens, 48 h exposure
# Procedure: as §1
# MDA-MB-435 [2] = experiment: NCI SRB cytotoxicity, melanoma MDA-MB-435; format: cell-based; settings: Homo sapiens, Melanoma panel MDA-MB-435, 48 h exposure
# Procedure: as §1
# OVCAR-4 = experiment: NCI SRB cytotoxicity, ovarian OVCAR-4; format: cell-based; settings: Homo sapiens, 48 h exposure
# Procedure: as §1
# human tumor cell lines = experiment: NCI SRB cytotoxicity, all fifty nine human tumor cell lines; format: cell-based; design: Log10 TGI mean graph midpoint (MG_MID): unit not given here; settings: for GI50: Homo sapiens; for cytotoxicity: against cancer cell lines, in words; for LC50: read-out: Log10 LC50 mean graph midpoint (MG_MID) (converted)
# Procedure: as §1
# The mean graph midpoint values of Log10 TGI and Log10 LC50 as well as Log10 GI50 for compounds 7e, 8e, 10e, 11e, 12e, 13e and 8f is listed in Table-3. […] The mean graph mid points of Log10 TGI and Log10, LC50 have shown similar pattern to the log10 GI50 mean graph mid points.
# UACC-257 = experiment: NCI SRB cytotoxicity, melanoma UACC-257; format: cell-based; settings: Homo sapiens, 48 h exposure
# Procedure: as §1
# SK-MEL-2 = experiment: NCI SRB cytotoxicity, melanoma SK-MEL-2; format: cell-based; settings: Homo sapiens, 48 h exposure
# Procedure: as §1
# [3] = across fifty nine cell lines in nine cell panels, read-out: GI50 value range
# [4] = against human tumor cell lines, read-out: Log10 GI50 mean graph midpoint (MG_MID) (converted)
# [5] = Homo sapiens, read-out: Log10 GI50 (concentration in mol/L causing 50% growth inhibition) (converted)
structure (smiles),measurement,setting,value
"COc1cc(-c2cc(/C=C/C(=O)c3ccc4c(c3)OCO4)[nH]n2)cc(OC)c1OC [11e, (E)-1-(benzo[d][1,3]dioxol-5-yl)-3-(3-(3,4,5-trimethoxyphenyl)-1H-pyrazol-5-yl)prop-2-en-1-one]",GI50,IGROV1,5 µM
same,GI50,MDA-MB-231/ATCC,3.5 µM
same,GI50,KM12,1.76 µM
same,GI50,OVCAR-5,3.37 µM
same,GI50,HCT-116,1.85 µM
same,GI50,MALME-3M,4.42 µM
same,GI50,SN12C,3.94 µM
same,GI50,HT29,2.18 µM
same,GI50,SW-620,2.47 µM
same,GI50,M14,3.86 µM
same,GI50,HOP-62,2.18 µM
same,GI50,786-0,2.33 µM
same,GI50,OVCAR-3,3.38 µM
same,GI50,HS 578T,3.71 µM
same,GI50,K-562,3.2 µM
same,GI50,NCI-H522,1.03 µM
same,CC50,Renal; Homo sapiens,42.7 µM
same,Log10 GI50 (concentration in mol/L causing 50% growth inhibition),Renal,−4.37 mol/L
same,Log10 TGI (concentration in mol/L causing total growth inhibition (0% growth)),Renal,−4.94 mol/L
same,GI50,NCI-H226,3.31 µM
same,CC50,"Prostate; Homo sapiens, read-out: Log10 LC50 (concentration in mol/L causing 50% cell death) (converted)",0.0001 mol/L
same,Log10 GI50 (concentration in mol/L causing 50% growth inhibition),Prostate,−4 mol/L
same,Log10 TGI (concentration in mol/L causing total growth inhibition (0% growth)),Prostate,−4.94 mol/L
same,GI50,MDA-MB-435 [1],1.4 µM
same,GI50,RPMI-8226,0.51 µM
same,GI50,CAKI-1,5.51 µM
same,GI50,COLO-205,1.87 µM
same,GI50,NCI-H23,2.02 µM
same,GI50,SK-MEL-5,4.51 µM
same,GI50,OVCAR-8,2.85 µM
same,GI50,BT-549,2.37 µM
same,GI50,HCT-15,2.12 µM
same,CC50,Breast; Homo sapiens,295 µM
same,Log10 GI50 (concentration in mol/L causing 50% growth inhibition),Breast,−3.53 mol/L
same,Log10 TGI (concentration in mol/L causing total growth inhibition (0% growth)),Breast,−4.60 mol/L
same,GI50,HL-60(TB),2.17 µM
same,GI50,MDA-MB-435 [2],2.39 µM
same,GI50,OVCAR-4,3.8 µM
same,GI50,human tumor cell lines; [3],0.18 to 29.2 µM
same,GI50,human tumor cell lines; [4],2.69 µM
same,cytotoxicity,human tumor cell lines,significant cytotoxicity
same,Log10 TGI mean graph midpoint (MG_MID),human tumor cell lines; against human tumor cell lines,−4.77
same,LC50,human tumor cell lines; against human tumor cell lines,61.7 µM
same,GI50,UACC-257,2.46 µM
same,GI50,SK-MEL-2,10.3 µM
"COc1ccc(C(=O)/C=C/c2cc(-c3cc(OC)c(OC)c(OC)c3)n[nH]2)cc1 [7e, (E)-1-(4-methoxyphenyl)-3-(3-(3,4,5-trimethoxyphenyl)-1H-pyrazol-5-yl)prop-2-en-1-one]",GI50,IGROV1,2.21 µM
same,GI50,MDA-MB-231/ATCC,1.88 µM
same,GI50,KM12,1.56 µM
same,GI50,OVCAR-5,1.88 µM
same,GI50,HCT-116,1.73 µM
same,GI50,MALME-3M,1.86 µM
same,GI50,SN12C,1.81 µM
same,GI50,HT29,1.97 µM
same,GI50,SW-620,1.62 µM
same,GI50,M14,2.2 µM
same,GI50,HOP-62,1.76 µM
same,GI50,786-0,1.95 µM
same,GI50,OVCAR-3,1.74 µM
same,GI50,HS 578T,3.6 µM
same,GI50,K-562,2.32 µM
same,GI50,NCI-H522,1.47 µM
same,GI50,Renal; [5],1.82 µM
same,CC50,Renal; Homo sapiens,18.2 µM
same,Log10 TGI (concentration in mol/L causing total growth inhibition (0% growth)),Renal,−5.43 mol/L
same,GI50,NCI-H226,1.89 µM
same,GI50,Prostate; [5],1.48 µM
same,Log10 TGI (concentration in mol/L causing total growth inhibition (0% growth)),Prostate,−5.55 mol/L
same,GI50,MDA-MB-435 [1],1.29 µM
same,GI50,RPMI-8226,0.43 µM
same,GI50,CAKI-1,2.34 µM
same,GI50,COLO-205,1.73 µM
same,GI50,NCI-H23,3.04 µM
same,GI50,SK-MEL-5,1.72 µM
same,GI50,OVCAR-8,2.43 µM
same,GI50,BT-549,1.86 µM
same,GI50,HCT-15,1.58 µM
same,GI50,Breast; [5],1.91 µM
same,CC50,Breast; Homo sapiens,33.9 µM
same,Log10 TGI (concentration in mol/L causing total growth inhibition (0% growth)),Breast,−5.08 mol/L
same,GI50,HL-60(TB),2.16 µM
same,GI50,MDA-MB-435 [2],2.2 µM
same,GI50,OVCAR-4,2.2 µM
same,GI50,human tumor cell lines; [3],0.18 to 29.2 µM
same,GI50,human tumor cell lines; [4],1.78 µM
same,cytotoxicity,human tumor cell lines,significant cytotoxicity
same,Log10 TGI mean graph midpoint (MG_MID),human tumor cell lines; against human tumor cell lines,−5.31
same,LC50,human tumor cell lines; against human tumor cell lines,33.9 µM
same,GI50,UACC-257,1.75 µM
same,GI50,SK-MEL-2,4.14 µM
